Row | Compound | melting point
1 | CN(C)CCc1cccc2ccc(-c3ccccc3CNS(C)(=O)=O)cc12 | 151 to 154 °C
2 | Cc1ccccc1-c1nc2c3ccccc3ccn2c1NC(C)c1ccccc1 (stereo unspecified) | 160 to 162 °C
3 | Cc1ccc(Oc2ccncc2[N+](=O)[O-])cn1 | 87 to 90 °C
4 | CCCCc1nc(C)c(CC(=S)N(C)C)c(=O)n1Cc1ccc(-c2ccccc2-c2nnn[nH]2)cc1 | 96.8 to 102 °C
5 | COC(C)=CC(=O)NC1CCC(C)CC1 (stereo unspecified) | 125 °C
6 | COc1cc([N+](=O)[O-])c2c(c1OC)C(=O)CC2 | 202 to 204 °C
7 | N#Cc1ccc(N2CCN(CCC3CCc4ccccc43)CC2)cc1 (stereo unspecified) | 157 to 158 °C
8 | CCOC(=O)CCc1cn(Cc2ccc(OCc3coc(-c4ccccc4)n3)cc2)nc1OCC | 80 to 81 °C
9 | O=C1CCN(C(=O)c2cc(-c3ccccc3)c(=O)n3c2-c2sccc2CC3)CC1 | 218 to 220 °C
10 | COc1ccc(C2CCN(c3c(C)c(C)c4c(c3C)C(O)(c3ccc(C)cc3)C(C)(C)O4)CC2)cc1OC (stereo unspecified) | 133 to 135 °C
11 | O=C1CC(c2c(-c3ccc[nH]3)[nH]c3ccccc23)C(=O)N1 (stereo unspecified) | 67 to 69 °C
12 | O=C(O)C1(Cc2ccccc2)CCN(Cc2ccccc2)C1 (stereo unspecified) | 209 to 210 °C
13 | O=c1[nH]c(=S)[nH]c2c1cnn2CC(O)c1ccccc1 (stereo unspecified) | 264 to 265 °C
14 | CCC1CC2=CC(OC(=O)c3ccc([N+](=O)[O-])cc3)CCC2C2CCC3(C)C(O)CCC3C12 (stereo unspecified) | 135 to 136 °C
15 | O=C(Nc1nnc(CC2CC2)o1)C(c1ccccc1)c1ccccc1 | 158 to 159 °C
16 | N#Cc1ccc(C#N)c(Sc2ccccc2)c1 | 106 °C
17 | COC(=O)c1ccc(-c2ccc(-c3ccc4c(c3)C(C)(C)CCC4(C)C)[nH]2)cc1 | 176 to 179 °C
18 | COc1ccc(C(=O)Nc2ccccc2)cc1NC(=S)Nc1cccc(C(=O)O)c1 | 196 to 197 °C
19 | O=C(O)/C=C/n1cnc2ccccc2c1=O | 250 to 254 °C
20 | CCCCCCCNC(=O)Nc1ccccc1CNCc1cc(C(C)(C)C)c(O)c(C(C)(C)C)c1 | 135 to 138 °C
21 | Oc1ccc2c(c1)[C@H](O)[C@H](Oc1cccnc1)CO2 (relative stereo) | 194 to 197 °C

Row | Compound | melting point
22 | COc1ccc(S(C)(=O)=O)cc1C(=O)NCC1CCCN1C12CCC(CC1)C2 (stereo unspecified) | 125 °C
23 | CCCc1cc(Cl)c2oc(Cc3ccc(O)cc3)c(C)c2c1O | 142 to 143 °C
24 | COc1cc(OC)nc(Oc2cccc3c2C(=O)OC3Cl)n1 (stereo unspecified) | 143 to 144 °C
25 | O=C(Cl)c1ccccc1Nc1cccc([N+](=O)[O-])c1 | 141 to 145 °C
26 | CCOc1nc(=O)n(C(C)C)c(=O)[nH]1 | 170 to 171 °C
27 | Cc1nc(C2CC2)nc(C)c1N1CCCn2c1nc1c(Cl)ccc(C(OC(F)F)C(F)(F)F)c12 (stereo unspecified) | 191 to 193 °C
28 | CC1(C)CCC(C)(C)c2cc(-c3cc(-c4ccc(C(=O)O)cc4)ccc3OCCN3CCOCC3)ccc21 | 270 to 272 °C
29 | COc1cccc(CN2CCC(NC(=O)c3cnc4c(OC)cccc4c3Nc3ccc(C(=O)NC4CCN(Cc5ccccc5)CC4)cc3)CC2)c1 | 135 to 142 °C
30 | CCCc1c(O)c(F)cc(C(C)=O)c1O | 129 to 130 °C
31 | CCN(CC)CCC(=O)C1Nc2cnccc2N(C)n2cccc21 (stereo unspecified) | 170 to 172 °C
32 | CCCCC1=NC2(CCCC2)C(=O)N1Cc1ccc(-c2ccccc2S(=O)(=O)Nc2onc(C)c2C)c(CCCC)c1 | 58 to 61 °C
33 | NNc1nccc(-c2ccc(Oc3ccccc3)cc2)c1Cl | 173 °C
34 | COC(Cn1cncn1)(c1ccc(F)cc1F)C(F)(F)SCCO (stereo unspecified) | 76 to 79 °C
35 | Cc1cc(CCCCCCCOc2ccc(C3=NCC(CO)O3)cc2)on1 (stereo unspecified) | 71 to 73 °C
36 | Cc1oc(-c2ccccc2)nc1CCOc1ccc(S(=O)(=O)Nc2cc(Cl)ccc2C(=O)O)cc1 | 223 to 225 °C
37 | CCN(CC)CCn1c(=Nc2ccccc2)sc2ncccc2c1=O | 61 to 62 °C
38 | CCCCc1nc2c(C)cnc(C(=O)OC)c2n1Cc1ccc(-c2ccccc2-c2nnn[nH]2)cc1 | 149 to 151 °C
39 | O=C(NCc1cccnc1)c1ccc2n1Cc1ccccc1N(C(=O)c1ccc(-c3ccccc3CN3CCCC3)cc1)C2 | 210 to 212 °C
40 | CC1CN(c2ccc(C(N)=O)cc2)CC(C)N1CCC1OCCc2ccccc21 (stereo unspecified) | 206 to 207 °C
41 | O=C(CCCC1CCCCC1)C1=C(O)CSC1=O | 45 to 50 °C
42 | N#Cc1cc(-c2ccccc2)cnc1Cl | 149 to 150 °C

Row | Compound | melting point
43 | CC12CCC(O)CC1CCC1C2CCC2(C)C(C=NNC(N)=O)CCC12O (stereo unspecified) | 222 to 226 °C
44 | Cc1nccn1-c1ccc(COc2cccc(C3(C#N)CCOCC3)c2)cc1 | 153 to 154 °C
45 | O=c1c2cc(Cl)ccc2nc(CSc2ncnc3[nH]cnc23)n1-c1ccccc1Cl | 237 to 238 °C
46 | COc1ccc(CCCC2OC(=O)NC2=O)cc1OCc1nc(-c2ccccc2)oc1C (stereo unspecified) | 185 to 187 °C
47 | COc1cc2cc(C=NO)c(Cl)nc2cc1OC | 237 to 238 °C
48 | Cc1c(Cl)ccc(-n2c(-c3ccccc3)cc(=O)c(C)c2-c2ccccc2)c1Cl | 237 to 238 °C
49 | COc1cc(CC(=O)Nc2ccc(C3CN(Cc4ccccc4)CC3C(=O)O)cc2)ccc1NC(=O)Nc1ccccc1C (stereo unspecified) | 255 °C
50 | OCCCCCCc1ccc(OCc2coc(/C=C/c3ccccc3)n2)cc1 | 94 to 95 °C
51 | COCCC(=O)Nc1ccc(Cl)c(C2(C)C(=O)N(Cc3ccc(OC)cc3OC)c3ccc(Cl)cc32)c1 (stereo unspecified) | 168 °C
52 | CCOC(=O)[C@@H]([C@H](N)C(=O)O)[C@@H](C)O | 150 to 151 °C
53 | O=C(Oc1c(F)c(F)c(F)c(F)c1F)c1ccccn1 | 62 to 64 °C
54 | COc1cccc(-c2nc3sccn3c2-c2ccnc(N[C@@H]3CCCN(C[C@@H](O)CO)C3)n2)c1 | 106 to 108 °C
55 | CCCc1nc2c(N)nc3cc(C)ccc3c2o1 | 188 to 189 °C
56 | CN(C)CCOc1cc(NS(=O)(=O)c2ccc(Oc3cccc(Cl)c3C#N)cc2)ccc1Cl | 103 to 106 °C
57 | CC/C=C\C/C=C\C/C=C\CCCCCCCC(=O)Nc1c(OC)cc(OC)cc1OC | 86 to 88 °C
58 | CC(=O)N1C(C)(C)CC(N2CCCCCC2=O)CC1(C)C | 104 to 108 °C
59 | O=C(O)c1ncn2c1CSC2 | 184 to 185 °C
60 | CCOCc1nc2c(N)nc3cc(Br)ccc3c2n1CC1CCCCN1C(=O)OC(C)(C)C (stereo unspecified) | 190 to 192 °C
61 | CCCCCCCCCCCCCCCCCC(O)c1ccc(C(=O)O)c(Cl)c1 (stereo unspecified) | 93 to 96 °C

Now from value to molecule:

Row | melting point | Compound
62 | 297 to 300 °C | CS(=O)(=O)c1[nH]nc(-c2ccc(F)cc2)c1-c1ccncc1
63 | 208 to 210 °C | FC(F)(F)c1ccc2nc(N3CCN(c4ncccc4Cl)CC3)[nH]c2c1
64 | 153 to 155 °C | FC(F)(F)c1cccc2c(-c3ccccc3)c(Oc3ccccc3)cnc12
65 | 115 to 116 °C | CN(C)c1ccc(C(=O)C(F)(F)c2ccccc2)cc1
66 | 97 °C | COC(=O)c1cc(-c2c(Br)c(C(F)(F)F)n(C)c2Br)c(F)cc1Cl
67 | 113 °C | CCCNC(=O)c1ccc2c(c1)N(C(C)CN1CCCCCC1)c1ccccc1S2 (racemic)
68 | 226 °C | Cc1cccc(N=c2scc(-c3ccc(Cl)c(S(=O)(=O)N(C)C)c3)n2C)c1C
69 | 141 °C | CC(C)CCNC(=O)c1ccccc1-c1ccccc1CNS(=O)(=O)c1cccc(F)c1
70 | 180 to 182 °C | COC(=O)N1CCN(Cc2nc(-c3ccc4c(c3)Nc3ccccc3S4)cs2)CC1
71 | 76 to 78 °C | CCCCCNC(=O)n1nc(Oc2ncc(C(F)(F)F)cc2Cl)c(Cl)c1C
72 | 80 to 83 °C | Fc1ccc(-c2cnc(SC(F)(F)F)nc2-c2ccc(F)cc2)cc1
73 | 67 to 68 °C | O=C(N1CC2CC(C1)c1ccccc12)C(F)(F)F
74 | 182 °C | Cc1c(-c2cc(Cl)cc(Cl)c2)ccc(N)c1C#N
75 | 195 to 197 °C | CN(CC(=O)O)C[C@H]1O[C@H](c2ccccc2Cl)c2cc(Cl)ccc2N(Cc2ccccc2)C1=O (relative stereo)
76 | 97 to 100 °C | COC(=O)COc1c(C(=O)OC)n(-c2ccccc2)c2ccc(OC)cc12
77 | 128 to 129 °C | CCOC(=O)c1nc2c(Cl)cccc2n(-c2ccc(OC)cc2)c1=O
78 | 159 to 161 °C | CC(C(N)=O)c1ccc2c(c1)C(=O)Cc1cc(C(F)(F)F)ccc1S2 (stereo unspecified)
79 | 214 to 215 °C | CNC(=O)c1cc2c(Oc3ccc(-n4cncn4)cc3)cncc2s1

Row | melting point | Compound
80 | 91 to 93 °C | COC(=O)c1ccc(SCc2cccc(C(F)(F)F)c2)c(C)n1
81 | 176 to 177 °C | CCOC(=O)c1nc(-c2cccc(C)c2)cn1C
82 | 123 to 126 °C | CC(C)OC(=O)N1CCC(c2nc3cc(-c4ccc(C(F)(F)F)cc4)ccc3o2)CC1
83 | 102 to 104 °C | CCOC(=O)CNC(=O)CCCCCNC(=O)c1cccc(C(F)(F)F)c1
84 | 210 to 211 °C | Cc1c(Cc2cccnc2)ccc2ccc(C(=O)O)cc12
85 | 121 to 123 °C | Nc1cc(C(F)(F)F)cc([N+](=O)[O-])c1N
86 | 173 to 175 °C | Cn1c(CC(=O)O)ccc1C(=O)c1ccc(N)cc1
87 | 243 to 244 °C | Cn1c2ccc(Br)cc2c2sccc(=O)c21
88 | 134 °C | CC(C)(C)OC(=O)N1CCn2c(C(=O)N[C@@H](Cc3ccccc3)[C@H](O)CNC3(c4cccc(C(F)(F)F)c4)CC3)cc(C(=O)O)c2C1
89 | 144 to 146 °C | Cn1cc(-c2cc3cccnc3[nH]2)c2cc(OC3(CO)CCC3)ccc21
90 | 160 to 163 °C | CC(C)Cn1cc(-c2ccc3nnn(Cc4ccc5ncccc5c4)c3n2)cn1
91 | 186 to 187 °C | O=C1Cc2cc(Cl)cc(C(=O)c3ccccc3)c2N1
92 | 148 to 149 °C | COc1cc(OC)nc(Oc2ccc3[nH]c(C)c(C=O)c3c2C(=O)OCc2ccccc2)n1
93 | 92 °C | CC(c1ncnc(Cl)c1F)C(O)(Cn1cncn1)c1ccc(F)cc1F (stereo unspecified)
94 | 184 to 185 °C | COc1cccnc1C(c1cc(F)ccc1F)S(=O)(=O)c1ccc(Cl)cc1 (stereo unspecified)
95 | 171 to 173 °C | C=CCn1c(C(F)(F)F)nc2ccc(-n3c(=O)cc(C(F)(F)F)n(C)c3=O)cc21
96 | 66 to 75.5 °C | CC1Cc2c(c(Br)cc(F)c2-n2c(=O)cc(C(F)(F)F)n(C)c2=O)O1 (stereo unspecified)

— a melting point compilation (Tetko et al.; mined from patent text by program, amines drawn as free bases though some values may be those of a salt)
